Data as given in ChEMBL document CHEMBL3351793, “Orally bioavailable factor Xa inhibitors containing alpha-substituted gem-dimethyl P4 moieties” (Bioorg Med Chem Lett, 2014).
pKi: −log10 of the molar value.

Columns and labels:
[1] = target: Coagulation factor X (Homo sapiens, UniProt P00742); experiment: Inhibition of purified human factor Xa
[2] = Inhibition of human factor 7a
[3] = tested on: Plasma; experiment: Anticoagulant activity in human plasma assessed as concentration required to double prothrombin time; format: functional
[4] = Clearance in dog at 0.5 mg/kg, iv and 0.2 mg/kg, po administered as cassette dosing; format: ADME, organism-based, Canis lupus familiaris; settings: in vivo
[5] = Apparent permeability from apical to basolateral side of the human Caco2 cells; format: ADME, cell-based; settings: caco-2
[6] = target: Coagulation factor IX (Homo sapiens, UniProt P00740); experiment: Inhibition of human factor 9a
[7] = Half life in dog at 0.2 mg/kg, po administered as cassette dosing; format: ADME, organism-based, Canis lupus familiaris; parameters: dose 0.2 mg/kg, route oral; settings: in vivo
[8] = target: Tissue-type plasminogen activator (Homo sapiens, UniProt P00750); experiment: Inhibition of human tissue plasminogen activator
[9] = target: Trypsin (Homo sapiens, UniProt P07477+P07478+P35030); experiment: Inhibition of human trypsin; format: protein assay
[10] = target: Vitamin K-dependent protein C (Homo sapiens, UniProt P04070); experiment: Inhibition of human activated protein C
[11] = target: Plasma kallikrein (Homo sapiens, UniProt P03952); experiment: Inhibition of human plasma kallikrein
[12] = Inhibition of human chymotrypsin
[13] = Oral bioavailability in dog at 0.2 mg/kg administered as cassette dosing; format: ADME, organism-based, Canis lupus familiaris; settings: in vivo
[14] = Volume of distribution at steady state in dog at 0.5 mg/kg, iv and 0.2 mg/kg, po administered as cassette dosing; format: ADME, organism-based, Canis lupus familiaris; settings: in vivo, read-out: Vdss
[15] = target: Coagulation factor XI (Homo sapiens, UniProt P03951); experiment: Inhibition of human factor 11a
[16] = target: Urokinase-type plasminogen activator (Homo sapiens, UniProt P00749); experiment: Inhibition of human urokinase
[17] = target: Prothrombin (Homo sapiens, UniProt P00734); experiment: Inhibition of human thrombin

Chain of Coagulation factor X (P00742 41-179 limits assumed): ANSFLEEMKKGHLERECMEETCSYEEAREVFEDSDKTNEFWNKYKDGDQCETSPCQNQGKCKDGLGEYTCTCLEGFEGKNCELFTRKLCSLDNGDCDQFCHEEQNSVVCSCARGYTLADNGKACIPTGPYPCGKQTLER
Chain of Coagulation factor X (P00742 235-488 limits assumed): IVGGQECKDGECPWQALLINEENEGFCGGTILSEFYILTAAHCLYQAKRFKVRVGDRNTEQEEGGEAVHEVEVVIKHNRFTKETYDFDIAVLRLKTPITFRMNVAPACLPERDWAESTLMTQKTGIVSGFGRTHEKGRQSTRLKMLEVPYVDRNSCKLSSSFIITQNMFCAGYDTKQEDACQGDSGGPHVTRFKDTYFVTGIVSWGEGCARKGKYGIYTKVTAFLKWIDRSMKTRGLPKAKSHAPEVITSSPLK
Chain of Vitamin K-dependent protein C (P04070 43-197 limits assumed): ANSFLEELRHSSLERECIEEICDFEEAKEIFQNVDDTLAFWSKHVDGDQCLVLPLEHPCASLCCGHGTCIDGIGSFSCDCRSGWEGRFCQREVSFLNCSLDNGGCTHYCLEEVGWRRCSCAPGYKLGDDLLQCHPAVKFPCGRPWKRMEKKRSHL
Chain of Vitamin K-dependent protein C (P04070 212-461 limits assumed): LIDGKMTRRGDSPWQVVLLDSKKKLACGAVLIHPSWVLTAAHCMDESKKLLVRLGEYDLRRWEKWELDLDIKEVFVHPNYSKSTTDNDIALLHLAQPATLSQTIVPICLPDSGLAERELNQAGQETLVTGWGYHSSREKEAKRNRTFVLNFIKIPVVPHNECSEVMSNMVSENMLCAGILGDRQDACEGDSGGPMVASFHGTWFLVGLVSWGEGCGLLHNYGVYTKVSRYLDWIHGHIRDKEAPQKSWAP
Chain of Tissue-type plasminogen activator (P00750 whole entry): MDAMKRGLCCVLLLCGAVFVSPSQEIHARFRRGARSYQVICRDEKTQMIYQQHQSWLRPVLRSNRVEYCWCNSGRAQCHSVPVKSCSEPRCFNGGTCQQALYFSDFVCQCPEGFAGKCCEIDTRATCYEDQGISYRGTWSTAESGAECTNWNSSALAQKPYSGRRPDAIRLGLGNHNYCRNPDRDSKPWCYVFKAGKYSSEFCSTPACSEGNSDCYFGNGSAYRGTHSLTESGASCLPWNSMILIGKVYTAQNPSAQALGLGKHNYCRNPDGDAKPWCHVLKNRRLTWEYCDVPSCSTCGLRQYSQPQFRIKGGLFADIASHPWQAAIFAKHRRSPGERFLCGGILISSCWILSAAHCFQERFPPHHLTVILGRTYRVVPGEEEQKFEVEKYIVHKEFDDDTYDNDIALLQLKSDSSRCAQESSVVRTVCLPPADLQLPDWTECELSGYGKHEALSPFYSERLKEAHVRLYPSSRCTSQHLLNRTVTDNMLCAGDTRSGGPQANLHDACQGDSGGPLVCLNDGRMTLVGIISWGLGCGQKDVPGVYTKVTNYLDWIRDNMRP
Chain of Plasma kallikrein (P03952 20-390 limits assumed): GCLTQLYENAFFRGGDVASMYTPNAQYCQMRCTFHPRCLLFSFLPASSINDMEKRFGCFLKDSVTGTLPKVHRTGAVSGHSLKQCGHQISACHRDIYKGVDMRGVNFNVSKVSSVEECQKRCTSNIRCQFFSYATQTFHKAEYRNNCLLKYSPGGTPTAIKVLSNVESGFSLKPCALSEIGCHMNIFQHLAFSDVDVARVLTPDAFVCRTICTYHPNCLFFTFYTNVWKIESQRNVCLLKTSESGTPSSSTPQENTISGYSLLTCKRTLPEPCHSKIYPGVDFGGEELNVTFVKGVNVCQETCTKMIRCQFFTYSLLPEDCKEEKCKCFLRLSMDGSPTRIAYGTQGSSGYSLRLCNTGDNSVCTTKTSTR
Chain of Plasma kallikrein (P03952 391-638 limits assumed): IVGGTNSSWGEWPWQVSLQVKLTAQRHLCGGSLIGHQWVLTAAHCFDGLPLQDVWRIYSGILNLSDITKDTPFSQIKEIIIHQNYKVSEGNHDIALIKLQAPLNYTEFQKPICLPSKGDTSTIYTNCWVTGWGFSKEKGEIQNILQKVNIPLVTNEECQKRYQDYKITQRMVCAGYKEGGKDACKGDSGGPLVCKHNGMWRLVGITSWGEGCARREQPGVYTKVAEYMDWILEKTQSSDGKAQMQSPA
Chain of Coagulation factor IX (P00740 47-191 limits assumed): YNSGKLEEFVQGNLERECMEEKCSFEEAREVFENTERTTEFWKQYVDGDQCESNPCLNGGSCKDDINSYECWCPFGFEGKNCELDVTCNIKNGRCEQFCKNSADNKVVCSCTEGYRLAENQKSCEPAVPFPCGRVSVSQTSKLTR
Chain of Coagulation factor IX (P00740 227-461 limits assumed): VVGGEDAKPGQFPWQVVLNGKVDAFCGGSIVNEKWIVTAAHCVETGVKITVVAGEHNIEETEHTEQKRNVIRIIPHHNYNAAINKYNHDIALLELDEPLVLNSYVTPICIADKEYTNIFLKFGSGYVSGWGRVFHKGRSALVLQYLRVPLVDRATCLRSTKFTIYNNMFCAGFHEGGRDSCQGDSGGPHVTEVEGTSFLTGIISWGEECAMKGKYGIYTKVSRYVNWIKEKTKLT
Chain of Coagulation factor XI (P03951 19-387 limits assumed): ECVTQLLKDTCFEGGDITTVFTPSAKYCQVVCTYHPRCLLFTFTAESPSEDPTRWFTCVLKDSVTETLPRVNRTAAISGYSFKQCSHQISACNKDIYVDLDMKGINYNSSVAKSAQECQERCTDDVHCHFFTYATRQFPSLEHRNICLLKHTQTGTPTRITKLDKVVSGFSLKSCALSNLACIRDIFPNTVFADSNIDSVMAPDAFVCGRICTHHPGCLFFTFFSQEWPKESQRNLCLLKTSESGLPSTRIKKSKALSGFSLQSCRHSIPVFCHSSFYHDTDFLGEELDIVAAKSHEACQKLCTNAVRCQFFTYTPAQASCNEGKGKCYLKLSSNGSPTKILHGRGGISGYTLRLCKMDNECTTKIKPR
Chain of Coagulation factor XI (P03951 388-625 limits assumed): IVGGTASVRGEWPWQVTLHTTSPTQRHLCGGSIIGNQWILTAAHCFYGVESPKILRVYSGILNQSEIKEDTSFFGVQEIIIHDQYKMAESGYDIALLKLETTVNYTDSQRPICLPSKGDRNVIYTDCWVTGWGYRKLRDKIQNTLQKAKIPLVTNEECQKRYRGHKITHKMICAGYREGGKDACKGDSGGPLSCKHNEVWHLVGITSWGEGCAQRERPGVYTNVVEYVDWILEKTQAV

SMILES | pKi [1] | Activity [3] | clearance [4] | Papp [5] | half-life [7] | bioavailability [13] | Vd [14] | further results
COc1ccc(-n2nc(C(N)=O)c3c2C(=O)N(c2ccc(C(C)(C)CO)cc2)CC3)cc1 | 9.18 | 3.8 µM | 0.98 L/h/kg | 58 nm/s | 4.95 h | 50% | 3.02 L/kg | pKi [2]: < 4.82; pKi [6]: < 4.82; pKi [8]: < 4.37; Ki [9]: > 15000 nM; pKi [10]: < 4.42; pKi [11]: < 4.96; pKi [12]: < 4.40; pKi [15]: < 4.82; pKi [16]: < 4.89; pKi [17]: 5.59
COc1ccc(-n2nc(S(C)(=O)=O)c3c2C(=O)N(c2ccc(C(C)(C)CO)cc2)CC3)cc1 | 9.00 | 3.9 µM |  | 36 nm/s |  |  |  | 
COc1ccc(-n2nc(S(C)(=O)=O)c3c2C(=O)N(c2ccc(C(C)(C)CN(C)C)cc2)CC3)cc1 | 9.96 | 0.67 µM | 3.86 L/h/kg | 41 nm/s | 1.86 h | 34% | 7.3 L/kg | 
COc1ccc(-n2nc(S(C)(=O)=O)c3c2C(=O)N(c2ccc(C(C)(C)CN4CCCC4)cc2)CC3)cc1 | 9.62 | 0.92 µM | 2.2 L/h/kg | 43 nm/s | 1.4 h | 10% | 5.5 L/kg | 
COc1ccc(-n2nc(S(C)(=O)=O)c3c2C(=O)N(c2ccc(C(C)(C)CN4CCOCC4)cc2)CC3)cc1 | 9.49 | 3.7 µM | 1.28 L/h/kg | 170 nm/s | 4.18 h | 13% | 10.1 L/kg | 
COc1ccc(-n2nc(C(N)=O)c3c2C(=O)N(c2ccc(C(C)(C)CN(C)C)cc2)CC3)cc1 | 10.15 | 0.45 µM | 5.04 L/h/kg | 59 nm/s | 1.04 h | 41% | 6.57 L/kg | 
COc1ccc(-n2nc(C(N)=O)c3c2C(=O)N(c2ccc(C(C)(C)CN4CCCC4)cc2)CC3)cc1 | 10.30 | 0.73 µM |  | 56 nm/s |  |  |  | 
COc1ccc(-n2nc(C(N)=O)c3c2C(=O)N(c2ccc(C(C)(C)CN4CCOCC4)cc2)CC3)cc1 | 10.22 | 3.8 µM | 1.76 L/h/kg | 170 nm/s | 2.8 h | 10% | 5.01 L/kg | 
COc1ccc(-n2nc(C(N)=O)c3c2C(=O)N(c2ccc(C(C)(C)C#N)cc2)CC3)cc1 | 8.91 | 3.4 µM |  | 180 nm/s |  |  |  | 
COc1ccc(-n2nc(C(N)=O)c3c2C(=O)N(c2ccc(C(C)(C)CN)cc2)CC3)cc1 | 9.82 | 0.69 µM | 3.36 L/h/kg | 7 nm/s | 3.33 h | 44% | 11.8 L/kg | 
COc1ccc(-n2nc(C(N)=O)c3c2C(=O)N(c2ccc(C(C)(C)CN4CCCCC4=O)cc2)CC3)cc1 | 8.82 | 7.4 µM |  | 83 nm/s |  |  |  | 
COc1ccc(-n2nc(C(N)=O)c3c2C(=O)N(c2ccc(C(C)(C)O)cc2)CC3)cc1 | 8.03 |  |  |  |  |  |  | 
COc1ccc(-n2nc(C(N)=O)c3c2C(=O)N(c2ccc(C(C)(C)N(C)C)cc2)CC3)cc1 | 9.70 | 0.96 µM |  | 11 nm/s |  |  |  | 
COc1ccc(-n2nc(C(N)=O)c3c2C(=O)N(c2ccc(C(C)(C)N4CCCC4)cc2)CC3)cc1 | 10.15 | 0.81 µM | 7.6 L/h/kg | 17 nm/s |  |  | 12 L/kg | 
COc1ccc(-n2nc(C(N)=O)c3c2C(=O)N(c2ccc(C(C)(C)S(C)(=O)=O)cc2)CC3)cc1 | 9.32 | 3.9 µM | 0.32 L/h/kg | 10 nm/s | 1.7 h | 79% | 0.51 L/kg | 
COc1ccc(-n2nc(C(N)=O)c3c2C(=O)N(c2ccc(C(C)(C)CNC4CC4)cc2)CC3)cc1 | 10.30 | 0.68 µM |  | 28 nm/s |  |  |  | 
COc1ccc(-n2nc(C(N)=O)c3c2C(=O)N(c2ccc(N4CCCCC4=O)cc2)CC3)cc1 [APIXABAN] |  |  | 0.02 L/h/kg |  |  |  | 0.2 L/kg | 
